Laboratory results from patent US20250213558A1, “T-TYPE CALCIUM CHANNEL MODULATORS COMPRISING A PIPERAZINE OR 1,4-DIAZEPANE CORE AND METHODS OF USE THEREOF” (Praxis Precision Medicines, Inc., priority 2022, published 2025).
Where two headings read alike, the source gives them in different places.

Target: T1, Human Cav3.1 calcium channel (Homo sapiens, UniProt O43497)
T1 construct: expressed in transfected cells; host or cells: HEK-293 natClytin/TASK1+Cav3.1 cell line
Assay: Human Cav3.1 calcium channel patch clamp assay (SyncroPatch 384PE; single point and IC50, voltage dependent block)
Format: cell-based
Conditions: for % Inhibition (Single Point Data): patch clamp
Procedure, shortened: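 Automated whole-cell patch clamp at room temperature, cells held at −120 mV; 100 ms step to −20 mV (resting block), then 1600 ms at −65 mV and a second −20 mV step (voltage-dependent block), every 15 s. Peak currents averaged over last 3 sweeps; % inhibition relative to nickel-sensitive current.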

[1] = voltage dependent block (VDB), HEK-293 natClytin/TASK1+Cav3.1 cell line, read-out: Cav3.1 IC50
[2] = Testing Conc 1.25, HEK-293 natClytin/TASK1+Cav3.1 cell line

T1 sequence (O43497 whole entry): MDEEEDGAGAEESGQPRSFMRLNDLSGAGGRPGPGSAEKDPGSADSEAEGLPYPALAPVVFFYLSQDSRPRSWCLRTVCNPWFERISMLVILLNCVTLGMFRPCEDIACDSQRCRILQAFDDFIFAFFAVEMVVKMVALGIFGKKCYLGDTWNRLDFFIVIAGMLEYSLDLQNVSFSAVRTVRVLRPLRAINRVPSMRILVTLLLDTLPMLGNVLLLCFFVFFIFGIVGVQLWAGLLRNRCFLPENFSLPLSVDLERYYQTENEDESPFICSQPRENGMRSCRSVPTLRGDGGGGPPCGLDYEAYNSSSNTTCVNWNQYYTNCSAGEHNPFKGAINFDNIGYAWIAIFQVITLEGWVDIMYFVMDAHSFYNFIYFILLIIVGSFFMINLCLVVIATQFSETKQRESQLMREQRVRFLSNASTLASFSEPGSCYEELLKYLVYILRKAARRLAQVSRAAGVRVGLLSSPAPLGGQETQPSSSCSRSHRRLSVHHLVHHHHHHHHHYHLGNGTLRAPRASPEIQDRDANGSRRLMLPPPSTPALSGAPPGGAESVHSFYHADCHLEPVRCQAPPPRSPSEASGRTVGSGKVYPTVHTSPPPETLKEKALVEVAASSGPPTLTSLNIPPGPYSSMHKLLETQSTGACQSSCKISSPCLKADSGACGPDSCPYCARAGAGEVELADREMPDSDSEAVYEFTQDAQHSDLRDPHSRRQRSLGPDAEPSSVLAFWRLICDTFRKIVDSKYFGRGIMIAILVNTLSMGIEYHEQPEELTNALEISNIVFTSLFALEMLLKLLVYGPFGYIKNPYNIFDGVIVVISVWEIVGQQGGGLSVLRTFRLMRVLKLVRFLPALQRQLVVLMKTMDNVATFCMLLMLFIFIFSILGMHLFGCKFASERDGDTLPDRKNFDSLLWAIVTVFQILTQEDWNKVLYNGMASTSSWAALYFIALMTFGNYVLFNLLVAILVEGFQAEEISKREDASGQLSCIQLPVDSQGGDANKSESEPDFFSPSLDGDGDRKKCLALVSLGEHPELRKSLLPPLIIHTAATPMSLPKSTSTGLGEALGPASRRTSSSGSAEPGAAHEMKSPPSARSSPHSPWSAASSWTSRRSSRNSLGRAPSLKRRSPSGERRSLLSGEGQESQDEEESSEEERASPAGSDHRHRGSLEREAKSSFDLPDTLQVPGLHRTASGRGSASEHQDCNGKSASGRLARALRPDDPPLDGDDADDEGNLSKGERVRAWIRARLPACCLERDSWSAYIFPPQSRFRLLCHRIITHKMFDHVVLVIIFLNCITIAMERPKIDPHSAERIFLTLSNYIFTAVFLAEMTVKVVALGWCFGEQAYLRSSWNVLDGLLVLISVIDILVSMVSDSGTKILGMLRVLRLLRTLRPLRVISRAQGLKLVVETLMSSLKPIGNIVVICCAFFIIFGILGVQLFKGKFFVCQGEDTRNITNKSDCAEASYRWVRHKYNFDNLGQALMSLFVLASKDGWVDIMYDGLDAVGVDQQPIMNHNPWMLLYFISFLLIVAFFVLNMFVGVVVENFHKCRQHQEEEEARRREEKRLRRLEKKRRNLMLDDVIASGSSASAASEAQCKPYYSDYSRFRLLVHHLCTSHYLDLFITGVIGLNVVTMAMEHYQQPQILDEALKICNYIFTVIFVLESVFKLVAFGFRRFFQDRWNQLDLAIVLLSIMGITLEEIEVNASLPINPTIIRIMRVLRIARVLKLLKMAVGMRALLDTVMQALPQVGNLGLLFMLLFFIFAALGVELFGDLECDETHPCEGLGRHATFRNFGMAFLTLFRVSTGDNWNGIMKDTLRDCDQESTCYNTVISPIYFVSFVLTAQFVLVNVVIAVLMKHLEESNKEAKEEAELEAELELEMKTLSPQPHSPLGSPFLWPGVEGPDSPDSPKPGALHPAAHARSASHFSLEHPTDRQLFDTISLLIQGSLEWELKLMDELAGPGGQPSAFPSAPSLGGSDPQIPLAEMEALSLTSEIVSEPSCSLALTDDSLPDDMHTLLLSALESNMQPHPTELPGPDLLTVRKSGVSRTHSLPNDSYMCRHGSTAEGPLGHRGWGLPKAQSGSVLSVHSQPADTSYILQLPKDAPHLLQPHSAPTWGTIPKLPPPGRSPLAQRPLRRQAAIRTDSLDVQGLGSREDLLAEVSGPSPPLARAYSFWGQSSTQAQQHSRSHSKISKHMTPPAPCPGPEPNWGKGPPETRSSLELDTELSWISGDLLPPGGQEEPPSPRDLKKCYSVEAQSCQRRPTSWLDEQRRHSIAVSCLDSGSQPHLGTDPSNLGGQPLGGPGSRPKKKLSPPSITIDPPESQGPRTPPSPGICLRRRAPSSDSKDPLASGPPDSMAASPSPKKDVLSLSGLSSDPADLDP

| % Inhibition (Single Point Data) (Testing Conc 1, HEK-293 natClytin/TASK1+Cav3.1 cell line) | SMILES | IC50 [1] | % Inhibition (Single Point Data) [2] | IC50 |
| --- | --- | --- | --- | --- |
| – | CC(C)(C)NC(=O)CN1C[C@@H]2C[C@H]1CN2CC(=O)Nc1ccc(Cl)c(OC(F)F)c1 [Compound 357] | 82 nM | – | – |
| – | Cc1cccc2[nH]c(CN3CC4CC(C3)N4CCC3CCC(F)(F)CC3)nc12 [Compound 157] | 297 nM | 79.835% | – |
| – | CC(C)(C)NC(=O)CN1C[C@@H]2C[C@H]1CN2CC(=O)NC12CC3CC(CC(C3)C1)C2 [Compound 259] | – | 91.279% | – |
| – | O=C(CN1C[C@H]2C[C@@H]1CN2CC(=O)NC1(C(F)(F)F)CC1)Nc1cc(F)cc(Cl)c1 [Compound 20] | 1020 nM | 56.816% | – |
| – | O=C(CN1C2CCC1CN(Cc1nc3c(Cl)cc(F)cc3[nH]1)C2)N1CCOCC1 [Compound 83] | 441 nM | 84.836% | – |
| – | CC(C(=O)Nc1ccc(F)c(Cl)c1)N1CC2CC(C1)N2CC(=O)NC1(C(F)(F)F)CC1 (centres unmarked) [Compound 30] | 705 nM | 63.42% | – |
| – | CC(C)(C)NC(=O)CN1C[C@@H]2C[C@H]1CN2CC(=O)NC1CCCC(OC(F)F)C1 (some centres unmarked) [Compound 343] | 1930 nM | 32.872% | – |
| – | CC(C)(C)NC(=O)CN1C2CC1CN(CC(=O)NC13CC4CC(CC(F)(C4)C1)C3)C2 [Compound 315] | 592 nM | 72.558% | – |
| – | CC(C)(CCN1C[C@@H]2C[C@H]1CN2CC(=O)NC12CC3CC(CC(C3)C1)C2)C(F)(F)F [Compound 329] | – | 59.633% | – |
| – | O=C(CN1CC2CC(C1)N2CC(=O)NC1(C(F)(F)F)CC1)Nc1ccc(F)c(Cl)c1 [Compound 240] | 329 nM | 80.113% | – |
| – | CC(C)(C(=O)NCCN1C2CC1CN(CC(=O)Nc1cc(F)cc(Cl)c1)C2)C(F)(F)F [Compound 230] | – | 96.987% | – |
| – | CC(C)Cc1cc(CNC(=O)CN2CC3CC(C2)N3CC(=O)NC(C)(C)C)nn1-c1ccccc1 [Compound 301] | 3240 nM | 19.445% | – |
| – | O=C(CN1CC2CC1CN2CCNC(=O)C1(C(F)(F)F)CC1)Nc1cc(F)cc(Cl)c1 (centres unmarked) [Compound 227] | 157 nM | 78.995% | – |
| – | CC(C)(C)NC(=O)CN1C[C@@H]2C[C@H]1CN2CC(=O)NC12CC3CC(C1)CC(OC(F)F)(C3)C2 [Compound 346] | 399 nM | 86.624% | – |
| – | COc1cc(Cl)cc(NC(=O)CN2C[C@@H]3C[C@H]2CN3CC(=O)NC2(C(F)(F)F)CC2)c1 [Compound 339] | 249 nM | 87.995% | – |
| – | O=C(CN1C[C@@H]2C[C@H]1CN2CCC1CCC(F)(F)CC1)NC12CC3CC(CC(C3)C1)C2 [Compound 318] | 304 nM | 88.753% | – |
| – | CC1(CCN2C3CC2CN(Cc2nc4c(Cl)cc(F)cc4[nH]2)C3)CCOCC1 [Compound 105] | – | 73.309% | – |
| – | Cc1ccnc2[nH]c(CN3CC4CCC(C3)N4CC(=O)NC(C)(C)C)nc12 [Compound 187] | 1000 nM | 46.159% | – |
| – | Fc1cc(Cl)c2nc(CN3CC4CC(C3)N4CCOC3CCOCC3)[nH]c2c1 [Compound 146] | 1280 nM | 41.657% | – |
| – | CC(C)(C)NC(=O)CN1C2CCC1CN(Cc1c[nH]c(-c3ccccc3)n1)C2 [Compound 197] | 1540 nM | 45.013% | – |

| % Inhibition (Single Point Data) (Testing Conc 1, HEK-293 natClytin/TASK1+Cav3.1 cell line) | SMILES | IC50 [1] | % Inhibition (Single Point Data) [2] | IC50 |
| --- | --- | --- | --- | --- |
| – | O=C(CN1CC2CC(C1)N2CC(=O)NC1(C(F)(F)F)CC1)Nc1ccc(F)c(OC(F)F)c1 [Compound 245] | – | 96.987% | 97.8 nM |
| – | OC1(CCN2C3CCC2CN(Cc2nc4c(Cl)cc(F)cc4[nH]2)C3)CCCC1 [Compound 92] | 175 nM | 98.505% | – |
| – | Fc1ccc(Cl)c2nc(CN3CCN(CC4(F)CCC(F)(F)CC4)CC3)[nH]c12 [Compound 155] | 370 nM | 80.753% | – |
| – | Cc1cc(Cl)cc(NC(=O)CN2CC3CC(C2)N3CC(=O)NC(C)(C)C)c1 [Compound 305] | 199 nM | 101.69% | – |
| – | Cn1nc(C2CC2)cc1NC(=O)CN1CC2CCC(C1)N2CC(=O)NC(C)(C)C [Compound 4] | – | 15.896% | – |
| – | C[C@H](NC(=O)CN1CC2CC(C1)N2CC(=O)NC(C)(C)C)C12CC3CC(CC(C3)C1)C2 [Compound 325] | 2600 nM | 22.59% | – |
| – | CC(C)(NC(=O)CN1C[C@H]2C[C@@H]1CN2CC(=O)Nc1ccc(F)c(Cl)c1)C(F)(F)F [Compound 27] | 457 nM | 69.274% | – |
| – | O=C(CN1CC2CC(C1)N2CC(=O)NC1(C(F)(F)F)CC1)Nc1cc(F)cc(Cl)c1 [Compound 170] | – | 96.908% | – |
| – | O=C(CN1CC2CC(C1)N2CC(F)(F)C1CCCCC1)Nc1cc(F)cc(Cl)c1 [Compound 226] | – | 39.507% | – |
| – | COc1cc(Cl)cc(NC(=O)CN2CC3CC(C2)N3CC(=O)NC2(C(F)(F)F)CC2)c1 [Compound 334] | – | 79.86% | – |
| – | CC1(C)CC(CN2C3CC2CN(CC(=O)NC24CC5CC(CC(C5)C2)C4)C3)CCO1 (centres unmarked) [Compound 299] | 932 nM | 43.196% | – |
| – | CC(C)(C)NC(=O)CN1C2CCC1CN(Cc1nc3c(Cl)cccc3[nH]1)C2 [Compound 189] | – | 92.283% | < 78.2 nM |
| – | CC(C)(C)NC(=O)CN1C2CC1CN(C(=O)c1nc3c(Cl)cc(F)cc3[nH]1)C2 [Compound 210] | 1910 nM | – | – |
| 35.477% | Cc1cc(NC(=O)CN2CCN(CC(=O)NC(C)(C)C)CC2)n(C)n1 [Compound 39] | – | – | – |
| – | CC1(NC(=O)CN2C3CCC2CN(Cc2nc4c(Cl)cc(F)cc4[nH]2)C3)COC1 [Compound 82] | – | 98.209% | – |
| – | CC(C)(NC(=O)CN1CC2CC(C1)N2Cc1nc2c(Cl)ccc(F)c2[nH]1)C(F)(F)F [Compound 127] | 992 nM | 52.415% | – |
| – | COc1cc(NC(=O)CN2CC3CC(C2)N3CC(=O)NC(C)(C)C)ccc1F [Compound 248] | 530 nM | 64.348% | – |
| – | CC(C)(C)NC(=O)CN1C2CC1CN(C(=O)NC13CC4CC(CC(C4)C1)C3)C2 [Compound 303] | 8850 nM | 23.993% | – |
| – | O=C(CN1C[C@@H]2C[C@H]1CN2CC(=O)NC1(C(F)(F)F)CC1)Nc1cc(F)c(F)c(Cl)c1 [Compound 347] | < 78.2 nM | – | – |
| – | CC(C)(C)NC(=O)CN1C[C@H]2CC[C@@H]1CN2CC(=O)Nc1cc(F)cc(Cl)c1 [Compound 268] | 356 nM | 85.508% | – |

| % Inhibition (Single Point Data) (Testing Conc 1, HEK-293 natClytin/TASK1+Cav3.1 cell line) | SMILES | IC50 [1] | % Inhibition (Single Point Data) [2] | IC50 |
| --- | --- | --- | --- | --- |
| – | CC(C)(C)NC(=O)CN1C2CCC1CN(Cc1nc(-c3ccccc3)c[nH]1)C2 [Compound 196] | – | 83.677% | – |
| – | Cc1cccc2[nH]c(C(C)N3CC4CCC(C3)N4CC(=O)NC(C)(C)C)nc12 (centres unmarked) [Compound 198] | 415 nM | 71.858% | – |
| – | Fc1cc(Cl)c2nc(CN3CC4CC(C3)N4CC3CCOCC3)[nH]c2c1 [Compound 117] | 1360 nM | 40.989% | – |
| – | CC(C)(C)NC(=O)CN1C[C@@H]2C[C@H]1CN2CC(=O)NC12CCC(CC1)CC2 [Compound 287] | 682 nM | 72.068% | – |
| – | CC(C)(C)NC(=O)CN1C[C@H]2CC[C@@H]1CN2CC(=O)Nc1ccc(F)c(OC(F)F)c1 [Compound 266] | 803 nM | 61.569% | – |
| – | COc1cc(NC(=O)CN2C[C@@H]3C[C@H]2CN3CC(=O)NC2(C(F)(F)F)CC2)cc(F)c1F [Compound 351] | 131 nM | – | – |
| – | Fc1cc(Cl)c2nc(CN3CCN(CCC4CCCC4)CC3)[nH]c2c1 [Compound 71] | – | 94.005% | – |
| – | CC(C)(C)NC(=O)CN1C2CC1CN(CC(=O)Nc1ccc(F)c(OC(F)(F)F)c1)C2 [Compound 242] | 177 nM | 93.661% | – |
| – | CC(C)(C)NC(=O)CN1CC2CCC1CN2Cc1nc2c(Cl)cc(F)cc2[nH]1 (centres unmarked) [Compound 63] | 167 nM | 93.839% | – |
| – | O=C(CN1CC2CC(C1)N2CC(=O)NC1(C(F)(F)F)CC1)Nc1ccc(F)c(C(F)(F)F)c1 [Compound 251] | – | 80.59% | – |
| – | O=C(CN1C[C@@H]2C[C@H]1CN2CC(=O)NC1(C(F)(F)F)CC1)Nc1ccc(Cl)c(OC(F)F)c1 [Compound 358] | 172 nM | – | – |
| – | Cc1cc(F)cc(NC(=O)CN2CC3CC(C2)N3CC(=O)NC2(C(F)(F)F)CC2)c1 [Compound 335] | 338 nM | 84.646% | – |
| – | CC(C)(C)NC(=O)CN1C2CCC1CN(Cc1ncc3ccccc3n1)C2 [Compound 186] | – | 5.7091% | – |
| – | CC(C(=O)NC(C)(C)C)N1C2CC1CN(CC(=O)Nc1ccc(F)c(OC(F)F)c1)C2 (centres unmarked) [Compound 254] | 115 nM | 93.503% | – |
| – | CC(C)(C)NC(=O)CN1C[C@@H]2C[C@H]1CN2CC(=O)Nc1cc(Cl)cc(Cl)c1 [Compound 272] | 71.2 nM | 98.544% | – |
| – | CN(C(=O)CN1C2CC1CN(Cc1nc3c(Cl)cc(F)cc3[nH]1)C2)C1(C)CCC1 [Compound 100] | – | 88.827% | – |
| – | COc1cc(F)cc(NC(=O)CN2CC3CC(C2)N3CC(=O)NC2(C(F)(F)F)CC2)c1 [Compound 333] | 178 nM | 82.813% | – |
| – | CC(C)Cc1cc(CNC(=O)CN2CCN(CC(=O)NC(C)(C)C)CC2)nn1-c1ccccc1 [Compound 1, 2-[4-[2-(tert-butylamino)-2-oxo-ethyl]piperazin-1-yl]-N-[(5-isobutyl-1-phenyl-pyrazol-3-yl)methyl]acetamide] | 2240 nM | 27.978% | – |
| – | CC(C)(C)NC(=O)CN1CC2CC1CN2CC(=O)Nc1cccc(C(F)F)c1 (centres unmarked) [Compound 13] | 490 nM | 64.618% | – |
